Test results reported in patent US12383548B2, “Antibacterial quinolines” (priority 2019, dated 2025).
In brackets after ≈: the same amount, converted by molar mass. Like-named read-outs stand apart in the source and are kept apart here.

How the values were obtained:
[1] = system: susceptible H37Rv M. tuberculosis, strain ATCC 25618; assay: Mycobacterium tuberculosis susceptibility assay REMA (resazurin microtiter assay); format: cell-based; details: Mycobacterium tuberculosis, 144 h, MTB growth, H37Rv, 6 days at 37° C., Middlebrook 7H9, read-out: REMA MIC
HepG2 cell line = assay: in vitro cytotoxicity assay (MTS tetrazolium reduction, cell viability); format: cell-based; details: Homo sapiens, HepG2, 48 h, MTS, read-out: IC50
Experimental: In an embodiment, the in vitro cytotoxicity assay was carried out as follows. […] The assay was performed in 96 well plates for 48 h at 37° C. and 5% CO2 in incubation medium (low glucose DMEM with Glutamax, 10% FBS, 1% Pen/Strep and DMSO). Cells were exposed to 8 different compound concentrations in successive dilutions (usually, base 2), plus a positive control (a compound in a concentration known to decrease cell viability above 50%) and a negative control (incubation medium). Six replicate wells were assayed for each condition. Compound stock solutions were prepared in DMSO at 20 mM, whenever possible, filter sterilized, aliquoted and stored at −20° C. The maximum compound concentrations tested depend on its solubility in incubation medium, and on the maximum DMSO percentage allowable without loss of cell viability. At the end of the incubation period, tetrazolium reagent was added (CellTiter 96® AQueous Solution from Promega); cells were incubated for another 3 hours in order to promote tetrazolium reduction to formazan by viable cells. The amount of soluble formazan produced was evaluated by 490 nm absorbance reading in a spectrophotometer plate reader.

physchem = format: physicochemical; details: pH 7.4
Experimental: The solution was allowed to mix in a rotator for 1 hour at 30 rpm.

in vitro [2] = format: in vitro ADME; details: human, plasma
Experimental: The percentage of the test compounds remaining after incubation in plasma and their half-lives (T1/2) were calculated.

in vitro [3] = format: in vitro ADME; details: human, plasma, pH 7.4
Experimental: The assay was performed in a multiple-use 96-well dialysis unit (HTD96b dialyzer). […] 120 μl of non-diluted plasma spiked with the compound (1 μM, 1% final DMSO concentration) was added to one chamber and the same volume of phosphate buffer saline pH 7.4 to the other chamber. HTD96b dialyzer was covered with adhesive sealing film and incubated at 37° C. and 100 rpm orbital shaking for 5 hours. […] For sample preparation, an aliquot of the content of each chamber was mixed with the same volume of the blank opposite matrix. In order to define non-specific loss of the compound during this assay, standard solution was created by mixing an aliquot of spiked plasma with blank buffer without dialysis. Samples were diluted 10-fold with 100% acetonitrile with subsequent plasma proteins sedimentation by centrifugation. Supernatants were analysed using a Shimadzu VP HPLC system with a reverse phase column, coupled with a tandem mass spectrometer API 3000 (PE Sciex). The both positive and negative ion modes of the TurbolonSpray ion source were used. […]
The percentage of plasma protein bounded compound and its recovery were calculated using the equations below:
The percentage of plasma protein bounded compound and its recovery were calculated using the values obtained for each compound in the quantification of the 3 samples (in buffer, plasma and standard solution).

| Structure (SMILES) | MIC ([1]; Table 1) | MIC ([1]; Table 2) | IC50 (HepG2 cell line; Table 1, cytotoxicity) | IC50 (HepG2 cell line; Table 2, cytotoxicity) | logD (physchem) | half-life at 1 μM (in vitro [2]) | fraction unbound at 5 h, 1 μM (in vitro [3]) |
| --- | --- | --- | --- | --- | --- | --- | --- |
| CCOC(=O)C1CCN(c2ccc3cc(-c4cccc(O)c4)ccc3n2)CC1 [Compound 26, ethyl 1-(6-(3-hydroxyphenyl)quinolin-2-yl)piperidine-4-carboxylate] | < 7.8 µM | < 7.8 µM | > 100 µM | > 100 µM | > 4.5 | > 2 h | ≤ 0.01 |
| CCOC(=O)C1CCN(c2ccc3cc(-c4ccc5[nH]ccc5c4)ccc3n2)CC1 [Compound 42, ethyl 1-(6-(1H-indol-5-yl)quinolin-2-yl)piperidine-4-carboxylate] | 7.8 to 15.6 µM (≈ 3.12 to 6.23 µg/mL) |  | 20 to 50 µM |  |  |  |  |
| CCOC(=O)C1CCCN(c2ccc3cc(-c4ccncc4)ccc3n2)C1 (centres unmarked) [Compound 54, ethyl 1-(6-(pyridin-4-yl)quinolin-2-yl)piperidine-3-carboxylate] | 7.8 to 15.6 µM (≈ 2.82 to 5.64 µg/mL) |  | > 100 µM |  |  |  |  |
